The record followed here is ChEMBL document CHEMBL3751724, “Bioactive lignan derivatives from the stems of Firmiana simplex” (Bioorg Med Chem Lett, 2016).

Where only a bound is given, the exact number is not on record here.

The first data set is described as follows: Antineuroinflammatory activity in mouse BV2 cells assessed as inhibition of LPS-induced nitric oxide production after 24 hrs by Griess assay. The data set is classed as functional, cell-based. The following applies: BV-2, 24 h.
As to `COc1cc([C@@H](O)[C@@H](CO)Oc2ccc(C=O)cc2OC)ccc1O` (relative stereo), the half-maximal inhibitory concentration (IC50) was determined as 47.6 µM.

With `COc1cc([C@@H]2OC[C@@H]3[C@H]2CO[C@H]3c2ccc3c(c2)OCO3)ccc1O` [PIPERITOL], the concentration for half-maximal inhibition (IC50) came to 32.6 µM.

Turning to `COc1cc(C(O)C(CO)Oc2c(OC)cc([C@@H]3OC[C@@H]4[C@H]3CO[C@H]4c3ccc(O)c(OC)c3)cc2OC)ccc1O` (stereo partly drawn), the IC50 came out at 19.3 µM.

As for `c1cc2c(cc1[C@@H]1OC[C@@H]3[C@H]1CO[C@H]3c1ccc3c(c1)OCO3)OCO2`, the IC50 was determined as 26.3 µM.

Turning to `COc1cc([C@@H](O)[C@@H](CO)Oc2ccc(/C=C/C=O)cc2OC)ccc1O`, the concentration for half-maximal inhibition (IC50) stood at 1.05 µM.

As for `COc1cc([C@@H]2Oc3c(OC)cc(/C=C/C=O)cc3[C@H]2CO)cc(OC)c1O`, the half-inhibitory concentration (IC50) worked out at 10 µM.

In the case of `COc1cc([C@@H]2OC[C@@H]3[C@H]2CO[C@H]3c2cc(OC)c(O)c(OC)c2)cc(OC)c1O`, the IC50 came to 27.5 µM.

`COc1cc([C@H](O)[C@@H](CO)Oc2ccc(/C=C/C=O)cc2OC)ccc1O`: the half-inhibitory concentration (IC50) worked out at 0.929 µM.

For `COc1cc(C(OC)[C@H]2CO[C@H](c3ccc(O)c(OC)c3)[C@H]2CO)ccc1O` (stereo partly drawn), the IC50 was 33 µM.

In the case of `COc1cc(C(O)C(CO)Oc2c(OC)cc([C@@H]3Oc4c(OC)cc(/C=C/C=O)cc4[C@H]3CO)cc2OC)ccc1O` (stereo partly drawn), the IC50 was 15.3 µM.

In the case of `COc1cc([C@@H]2Oc3c(OC)cc(/C=C/C=O)cc3[C@H]2CO)ccc1O`, the IC50 is 7.07 µM.

Consider `Oc1ccc([C@@H]2OC[C@H]3[C@H](c4ccc5c(c4)OCO5)OC[C@@]23O)cc1`, for which the IC50 is 35.4 µM.

With `COc1cc(/C=C/CO)ccc1O[C@H](CO)[C@@H](O)c1cc(OC)c(O)c(OC)c1` (relative stereo), the concentration for half-maximal inhibition (IC50) worked out at 9.14 µM.

On to `COc1cc([C@@H](O)[C@@H](CO)Oc2ccc(/C=C/CO)cc2OC)ccc1O` (relative stereo), for which the IC50 worked out at 32.6 µM.

Regarding `COc1cc([C@@H](O)[C@H](CO)Oc2c(OC)cc([C@@H]3OC[C@H]4[C@H](c5ccc(O)c(OC)c5)OC[C@@]34O)cc2OC)ccc1O`, the IC50 was more than 500 µM.

For the compound `COc1cc([C@@H](O)[C@@H](CO)Oc2c(OC)cc(/C=C/CO)cc2OC)ccc1O` (relative stereo), the IC50 came to 23.5 µM.

As to `COc1cc([C@@H]2OC[C@@H]3[C@H]2CO[C@H]3c2ccc(O)c(OC)c2)ccc1O` [(+)-PINORESINOL], the IC50 came out at 25.1 µM.

As to `COc1cc([C@H]2OC[C@H]3[C@@H]2CO[C@@H]3c2ccc(O)c(OC)c2)ccc1O`, the half-inhibitory concentration (IC50) is 31.1 µM.

As for `COc1cc([C@@H]2OC[C@@]3(O)[C@H](c4ccc5c(c4)OCO5)OC[C@@H]23)ccc1O` (relative stereo), the IC50 is more than 500 µM.

Another data set can be described thus: Cytotoxicity against LPS-stimulated mouse BV2 cells assessed as cell viability at 20 uM by MTT assay relative to control. Particulars: read-out: Activity. The data set is classed as cell-based, BV-2.
For the compound `COc1cc([C@@H](O)[C@@H](CO)Oc2ccc(C=O)cc2OC)ccc1O` (relative stereo), the viability at 20 µM came out at 116%.

Take `COc1cc([C@@H]2OC[C@@H]3[C@H]2CO[C@H]3c2ccc3c(c2)OCO3)ccc1O` [PIPERITOL]: the viability at 20 µM is 113%.

For `COc1cc(C(O)C(CO)Oc2c(OC)cc([C@@H]3OC[C@@H]4[C@H]3CO[C@H]4c3ccc(O)c(OC)c3)cc2OC)ccc1O` (stereo partly drawn), the viability at 20 µM was 121%.

For `c1cc2c(cc1[C@@H]1OC[C@@H]3[C@H]1CO[C@H]3c1ccc3c(c1)OCO3)OCO2`, the viability at 20 µM turned out to be 126%.

Regarding `COc1cc([C@@H](O)[C@@H](CO)Oc2ccc(/C=C/C=O)cc2OC)ccc1O`, the viability at 20 µM turned out to be 123%.

Turning to `COc1cc([C@@H]2Oc3c(OC)cc(/C=C/C=O)cc3[C@H]2CO)cc(OC)c1O`, the viability at 20 µM amounted to 120%.

For the compound `COc1cc([C@@H]2OC[C@@H]3[C@H]2CO[C@H]3c2cc(OC)c(O)c(OC)c2)cc(OC)c1O`, the viability at 20 µM is 110%.

For the compound `COc1cc([C@H](O)[C@@H](CO)Oc2ccc(/C=C/C=O)cc2OC)ccc1O`, the viability at 20 µM was determined as 129%.

Regarding `COc1cc(C(OC)[C@H]2CO[C@H](c3ccc(O)c(OC)c3)[C@H]2CO)ccc1O` (stereo partly drawn), the viability at 20 µM stood at 115%.

As for `COc1cc(C(O)C(CO)Oc2c(OC)cc([C@@H]3Oc4c(OC)cc(/C=C/C=O)cc4[C@H]3CO)cc2OC)ccc1O` (stereo partly drawn), the viability at 20 µM is 129%.

In the case of `COc1cc([C@@H]2Oc3c(OC)cc(/C=C/C=O)cc3[C@H]2CO)ccc1O`, the viability at 20 µM came to 115%.

On to `Oc1ccc([C@@H]2OC[C@H]3[C@H](c4ccc5c(c4)OCO5)OC[C@@]23O)cc1`, for which the viability at 20 µM stood at 109%.

As to `COc1cc(/C=C/CO)ccc1O[C@H](CO)[C@@H](O)c1cc(OC)c(O)c(OC)c1` (relative stereo), the viability at 20 µM amounted to 123%.

For `COc1cc([C@@H](O)[C@@H](CO)Oc2ccc(/C=C/CO)cc2OC)ccc1O` (relative stereo), the viability at 20 µM stood at 117%.

For the compound `COc1cc([C@@H](O)[C@H](CO)Oc2c(OC)cc([C@@H]3OC[C@H]4[C@H](c5ccc(O)c(OC)c5)OC[C@@]34O)cc2OC)ccc1O`, the viability at 20 µM amounted to 108%.

With `COc1cc([C@@H](O)[C@@H](CO)Oc2c(OC)cc(/C=C/CO)cc2OC)ccc1O` (relative stereo), the viability at 20 µM was 120%.

Turning to `COc1cc([C@@H]2OC[C@@H]3[C@H]2CO[C@H]3c2ccc(O)c(OC)c2)ccc1O` [(+)-PINORESINOL], the viability at 20 µM was determined as 115%.

For the compound `COc1cc([C@H]2OC[C@H]3[C@@H]2CO[C@@H]3c2ccc(O)c(OC)c2)ccc1O`, the viability at 20 µM was found to be 111%.

For `COc1cc([C@@H]2OC[C@@]3(O)[C@H](c4ccc5c(c4)OCO5)OC[C@@H]23)ccc1O` (relative stereo), the viability at 20 µM is 108%.
